This note sets out measurements from patent US7605163B2, “Benzoyl-piperazine derivatives” (Hoffmann-La Roche Inc., priority 2003, dated 2009).

For the test, the target named is T1, mGlyT-1b (Mus musculus, UniProt P28571).
T1 construct: host or cells: Flp-in-CHO cells
T1 sequence (P28571 1-651 isoform P28571-2): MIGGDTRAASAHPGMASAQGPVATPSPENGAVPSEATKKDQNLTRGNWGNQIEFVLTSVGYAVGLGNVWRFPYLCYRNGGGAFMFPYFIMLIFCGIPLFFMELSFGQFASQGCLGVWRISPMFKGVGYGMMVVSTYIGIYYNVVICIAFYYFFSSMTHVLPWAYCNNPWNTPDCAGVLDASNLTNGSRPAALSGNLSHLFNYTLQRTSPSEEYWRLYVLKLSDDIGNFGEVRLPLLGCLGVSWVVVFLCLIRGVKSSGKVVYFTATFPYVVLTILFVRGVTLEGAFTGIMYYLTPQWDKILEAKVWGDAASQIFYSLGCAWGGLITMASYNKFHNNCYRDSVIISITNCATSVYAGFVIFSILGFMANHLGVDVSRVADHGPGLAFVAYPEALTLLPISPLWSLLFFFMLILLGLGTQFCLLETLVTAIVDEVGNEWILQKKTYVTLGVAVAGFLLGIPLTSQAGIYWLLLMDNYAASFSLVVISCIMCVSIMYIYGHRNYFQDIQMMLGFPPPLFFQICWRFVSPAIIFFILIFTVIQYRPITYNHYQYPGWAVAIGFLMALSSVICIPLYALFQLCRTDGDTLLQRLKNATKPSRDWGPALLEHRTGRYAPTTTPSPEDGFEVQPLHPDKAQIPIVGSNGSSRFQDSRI
The experiment in a line: Glycine Uptake Inhibition Assay (mGlyT-1b). Format: cell-based. The settings on record: [3H]-glycine uptake inhibition at GlyT-1, Flp-in-CHO cells transfected with mGlyT-1b cDNA. The method, then: DMEM complete medium: Nutrient mixture F-12 (Gibco Life-technologies), fetal bovine serum (FBS) 5%, (Gibco life technologies), Penicillin/Streptomycin 1% (Gibco life technologies), Hygromycin 0.6 mg/ml (Gibco life technologies), Glutamine 1 mM Gibco life technologies)
Uptake buffer (UB): 150 mM NaCl, 10 mM Hepes-Tris, pH 7.4, 1 mM CaCl2, 2.5 mM KCl, 2.5 mM MgSO4, 10 mM (+) D-glucose. Flp-in™-CHO (Invitrogen Cat n^o R758-07) cells stably transfected with mGlyT1b cDNA.
Glycine Uptake Inhibition Assay (mGlyT-1b)
On day 1 mammalian cells, (Flp-in™-CHO), transfected with mGlyT-1b cDNA, were plated at the density of 40,000 cells/well in complete F-12 medium, without hygromycin in 96-well culture plates. On day 2, the medium was aspirated, and the cells were washed twice with uptake buffer (UB). The cells were then incubated for 20 min at 22° C. with either (i) no potential competitor, (ii) 10 mM non-radioactive glycine, (iii) a concentration of a potential inhibitor. A range of concentrations of the potential inhibitor was used to generate data for calculating the concentration of inhibitor resulting in 50% of the effect (e.g. IC50, the concentration of the competitor inhibiting glycine uptake of 50%).
A solution was then immediately added containing [^3H]-glycine 60 nM (11-16 Ci/mmol) and 25 μM non-radioactive glycine. The plates were incubated with gentle shaking, and the reaction was stopped by aspiration of the mixture and washing (three times) with ice-cold UB. The cells were lysed with scintillation liquid, shaken 3 hours and the radioactivity in the cells counted using a scintillation counter.

Regarding `CCC(C)Oc1ccc([N+](=O)[O-])cc1C(=O)N1CCN(c2ccc(C(F)(F)F)cc2)CC1` (racemic) [Example 78, Rac-(2-sec-Butoxy-5-nitro-phenyl)-[4-(4-trifluoromethyl-phenyl)-piperazin-1-yl]-methanone], the IC50 worked out at 12 nM. In other words, the double-digit nanomolar range.
Compound `CC(Oc1ccc(S(C)(=O)=O)cc1C(=O)N1CCN(c2ccc(C(F)(F)F)cc2)CC1)C1CC1` (racemic) [Example 104, Rac-[2-(1-Cyclopropyl-ethoxy)-5-methanesulfonyl-phenyl]-[4-(4-trifluoromethyl-phenyl)-piperazin-1-yl]-methanone] registered an IC50 of 46 nM.
With `CC(Oc1ccc(S(C)(=O)=O)cc1C(=O)N1CCN(c2ccc(C#N)c(F)c2F)CC1)C(F)(F)F` (racemic) [compound 207] the figure was 23 nM; with `CC(Oc1ccc(S(C)(=O)=O)cc1C(=O)N1CCN(c2ccc(Cl)cc2C#N)CC1)C(F)(F)F` (racemic) [compound 256], 32 nM.
`CC(Oc1ccc(S(C)(=O)=O)cc1C(=O)N1CCN(c2ccc(Cl)c(Cl)c2)CC1)C(F)(F)F` (racemic) [compound 258] gave a 50% inhibitory concentration (IC50) of 86 nM.
The compound `CC(Oc1ccc(S(C)(=O)=O)cc1C(=O)N1CCN(c2c(F)cc(C#N)cc2F)CC1)C(F)(F)F` (racemic) [compound 260] showed an IC50 of 43 nM.
For `CC(Oc1ccc(S(C)(=O)=O)cc1C(=O)N1CCN(c2cc(F)c(C#N)cc2F)CC1)C(F)(F)F` (racemic) [compound 261] the value was 43 nM; for `CC(Oc1ccc(S(C)(=O)=O)cc1C(=O)N1CCN(c2cc(F)c(C#N)c(F)c2)CC1)C(F)(F)F` (racemic) [compound 262], 42 nM.
With `CC(Oc1ccc(S(C)(=O)=O)cc1C(=O)N1CCN(c2ccc(C#N)cc2)CC1)C(F)(F)F` (racemic) [compound 298] the figure was 21 nM.
For `CC(Oc1ccc(S(C)(=O)=O)cc1C(=O)N1CCN(c2ccc(C#N)cc2F)CC1)C(F)(F)F` (racemic) [compound 299] the value was 44 nM; for `CC(Oc1ccc(S(C)(=O)=O)cc1C(=O)N1CCN(c2ccc(C#N)c(F)c2)CC1)C(F)(F)F` (racemic) [compound 300], 16 nM.
Turning to `CC(Oc1ccc(S(C)(=O)=O)cc1C(=O)N1CCN(c2ccc(C(F)(F)F)cc2F)CC1)C(F)(F)F` (racemic) [compound 302], the midpoint of inhibition, the IC50, lay at 13 nM.
For `CC(Oc1ccc(S(C)(=O)=O)cc1C(=O)N1CCN(c2ccc(C(F)(F)F)c(F)c2)CC1)C(F)(F)F` (racemic) [compound 303] the value was 6 nM.
`CCC(C)Oc1ccc(S(C)(=O)=O)cc1C(=O)N1CCN(c2ccc(C(C)=O)cc2F)CC1` (racemic) [compound 319] gave a half-maximal inhibitory concentration (IC50) of 31 nM. This IC50 lies about 5.2-fold higher than the previous one.
For `CCC(C)Oc1ccc(S(C)(=O)=O)cc1C(=O)N1CCN(c2ccc(C#N)cc2F)CC1` (racemic) [compound 321] the value was 18 nM.
For `CCC(C)Oc1ccc(S(C)(=O)=O)cc1C(=O)N1CCN(c2ccc(C#N)c(F)c2)CC1` (racemic) [compound 322] the value was 28 nM; for `CCC(C)Oc1ccc(S(C)(=O)=O)cc1C(=O)N1CCN(c2ccc(C(F)(F)F)cc2F)CC1` (racemic) [compound 324], 39 nM; for `CCC(C)Oc1ccc(S(C)(=O)=O)cc1C(=O)N1CCN(c2ccc(C(F)(F)F)c(F)c2)CC1` (racemic) [compound 325], 33 nM.
Compound `CC(Oc1ccc(S(C)(=O)=O)cc1C(=O)N1CCN(c2ncc(C(F)(F)F)cc2Cl)CC1)C(F)(F)F` (racemic) [compound 407] showed an IC50 of 27 nM.
Turning to `CC(Oc1ccc(S(C)(=O)=O)cc1C(=O)N1CCN(c2ccc(C(F)(F)F)cn2)CC1)C(F)(F)F` (racemic) [compound 408], the IC50 was found to be 37 nM.
With `CC(Oc1ccc(S(C)(=O)=O)cc1C(=O)N1CCN(c2ccc(Br)cn2)CC1)C(F)(F)F` (racemic) [compound 435] the figure was 29 nM.
With `CC(Oc1ccc(S(C)(=O)=O)cc1C(=O)N1CCN(c2ncc(C(F)(F)F)cc2F)CC1)C(F)(F)F` (racemic) [compound 438] the figure was 47 nM.
